# Measured values published in PubChem BioAssay AID308 (DTP/NCI, 2004).
# Where “and” joins values, the source holds several entries; their conditions need not be identical. Identical values can stand only once. Toxic doses and inconclusive results are not listed.
# Test system: BDF1 mice, L1210 6-MP/6-TG resistant leukemia ip, survival T/C
# Assay: NCI In Vivo Anticancer Drug Screen. Data for tumor model L1210 Leukemia resistant to 6-MP and 6-Thioguanine; NSC 755, NSC 752 (intraperitoneal) in B6D2F1 (BDF1) mice
# Conditions: endpoint: mean survival time, higher = longer survival
# Protocol: The antitumor activity of compounds was measured in mice bearing transplantable tumors. Survival or tumor size were measured and the results are expressed as the measurement made in the treated group (T) divided by the measurement made in the vehicle treated control group (C). The tumor model used in this assay is L1210 Leukemia resistant to 6-MP and 6-Thioguanine; NSC 755, NSC 752 (intraperitoneal) in B6D2F1 (BDF1) mice
# [1] = dose: 12.5 mg/kg/injection, schedule: Q01DX015 (ip), vehicle: carboxymethylcellulose (CMC)
# [2] = dose: 25.0 mg/kg/injection, schedule: Q01DX015 (ip), vehicle: carboxymethylcellulose (CMC)
structure (smiles),measurement,setting,value
CCCn1cnc2c(=S)nc[nH]c21,T/C,[1],97 % of control
same,T/C,[2],95 % of control
same,T/C,"dose: 50.0 mg/kg/injection, schedule: Q01DX015 (ip), vehicle: carboxymethylcellulose (CMC)",101 % of control
same,T/C,"dose: 100.0 mg/kg/injection, schedule: Q01DX015 (ip), vehicle: carboxymethylcellulose (CMC)",96 % of control
CCSc1ncc(Br)c(Sc2nc(N)nc3nc[nH]c23)n1,T/C,"dose: 1.5 mg/kg/injection, schedule: Q01DX015 (ip), vehicle: carboxymethylcellulose (CMC)",112 % of control
same,T/C,"dose: 3.0 mg/kg/injection, schedule: Q01DX015 (ip), vehicle: carboxymethylcellulose (CMC)",115 % of control
same,T/C,"dose: 6.0 mg/kg/injection, schedule: Q01DX015 (ip), vehicle: carboxymethylcellulose (CMC)",100 % of control
same,T/C,[1],100 % of control
C[C@@H]1C[C@@H]([C@H](O)CC2CC(=O)NC(=O)C2)C(=O)[C@@H](C)C1,T/C,"dose: 0.93 mg/kg/injection, schedule: Q01DX Z (ip), vehicle: carboxymethylcellulose (CMC)",101 % of control
same,T/C,"dose: 1.87 mg/kg/injection, schedule: Q01DX Z (ip), vehicle: carboxymethylcellulose (CMC)",101 % of control
same,T/C,"dose: 3.75 mg/kg/injection, schedule: Q01DX Z (ip), vehicle: carboxymethylcellulose (CMC)",100 % of control
same,T/C,"dose: 7.5 mg/kg/injection, schedule: Q01DX Z (ip), vehicle: carboxymethylcellulose (CMC)",101 % of control
same,T/C,"dose: 7.5 mg/kg/injection, schedule: Q01DX Z (ip), vehicle: saline",116 % of control
same,T/C,"dose: 15.0 mg/kg/injection, schedule: Q01DX Z (ip), vehicle: saline",114 % of control
same,T/C,"dose: 30.0 mg/kg/injection, schedule: Q01DX Z (ip), vehicle: saline",112 % of control
same,T/C,"dose: 60.0 mg/kg/injection, schedule: Q01DX Z (ip), vehicle: saline",92 % of control
O=c1cnn(C2OC(CO)C(O)C2O)c(=O)[nH]1 (stereo unspecified),T/C,"dose: 62.5 mg/kg/injection, schedule: Q01DX Z (ip), vehicle: saline",115 % of control
same,T/C,"dose: 500.0 mg/kg/injection, schedule: Q01DX Z (ip), vehicle: saline",120 % of control
same,T/C,"dose: 750.0 mg/kg/injection, schedule: Q01DX Z (ip), vehicle: saline",110 % of control
same,T/C,"dose: 1000.0 mg/kg/injection, schedule: Q01DX Z (ip), vehicle: saline",109 % of control
Nc1nc(=S)c2[nH]cnc2[nH]1,T/C,"dose: 0.37 mg/kg/injection, schedule: Q01DX Z (ip), vehicle: carboxymethylcellulose (CMC)",123 % of control
same,T/C,"dose: 0.5 mg/kg/injection, schedule: Q01DX Z (ip), vehicle: carboxymethylcellulose (CMC)",92 % of control
same,T/C,"dose: 0.75 mg/kg/injection, schedule: Q01DX Z (ip), vehicle: carboxymethylcellulose (CMC)",101 % of control
same,T/C,"dose: 1.0 mg/kg/injection, schedule: Q01DX Z (ip), vehicle: carboxymethylcellulose (CMC)",103 % of control
same,T/C,"dose: 1.25 mg/kg/injection, schedule: Q01DX Z (ip), vehicle: carboxymethylcellulose (CMC)",104 % of control
same,T/C,"dose: 2.5 mg/kg/injection, schedule: Q01DX Z (ip), vehicle: carboxymethylcellulose (CMC)",95 % of control
S=c1nc[nH]c2c1ncn2CN1CCCCC1,T/C,"dose: 50.0 mg/kg/injection, schedule: Q01DX009 (ip), vehicle: other",94 % of control
CCCC(=O)OCC1OC(n2cnc3c(=S)nc[nH]c32)C(OC(=O)CCC)C1OC(=O)CCC (stereo unspecified),T/C,"dose: 6.25 mg/kg/injection, schedule: Q01DX Z (ip), vehicle: other",99 % of control
same,T/C,"dose: 12.5 mg/kg/injection, schedule: Q01DX Z (ip), vehicle: other",92 % of control
same,T/C,"dose: 25.0 mg/kg/injection, schedule: Q01DX009 (ip), vehicle: Klucel (hydroxypropylcellulose) (HPC)",92 % of control
same,T/C,"dose: 25.0 mg/kg/injection, schedule: Q01DX Z (ip), vehicle: other",90 % of control and 92 % of control
same,T/C,"dose: 50.0 mg/kg/injection, schedule: Q01DX009 (ip), vehicle: Klucel (hydroxypropylcellulose) (HPC)",98 % of control
same,T/C,"dose: 50.0 mg/kg/injection, schedule: Q01DX Z (ip), vehicle: other",96 % of control
same,T/C,"dose: 100.0 mg/kg/injection, schedule: Q01DX009 (ip), vehicle: Klucel (hydroxypropylcellulose) (HPC)",92 % of control
same,T/C,"dose: 100.0 mg/kg/injection, schedule: Q01DX Z (ip), vehicle: other",90 % of control
O=C(O)c1cc[c]([Hg][S]c2ncnc3nc[nH]c23)cc1,T/C,[1],95 % of control
same,T/C,[2],87 % of control
CN(C)C(=S)N=Nc1c(O)[nH]c2ccccc12,T/C,"dose: 25.0 mg/kg/injection, schedule: Q01DX Z (ip), vehicle: carboxymethylcellulose (CMC)",107 % of control
same,T/C,"dose: 50.0 mg/kg/injection, schedule: Q01DX Z (ip), vehicle: carboxymethylcellulose (CMC)",105 % of control
same,T/C,"dose: 100.0 mg/kg/injection, schedule: Q01DX Z (ip), vehicle: carboxymethylcellulose (CMC)",91 % of control
O=C(Nc1ccc(C2=NCCN2)cc1)c1ccc(C(=O)Nc2ccc(C3=NCCN3)cc2)c(Cl)c1,T/C,"dose: 1.7 mg/kg/injection, schedule: Q01DX015 (ip), vehicle: carboxymethylcellulose (CMC)",110 % of control
same,T/C,"dose: 2.6 mg/kg/injection, schedule: Q01DX015 (ip), vehicle: carboxymethylcellulose (CMC)",107 % of control
same,T/C,"dose: 3.8 mg/kg/injection, schedule: Q01DX015 (ip), vehicle: carboxymethylcellulose (CMC)",97 % of control
same,T/C,"dose: 4.4 mg/kg/injection, schedule: Q01DX015 (ip), vehicle: carboxymethylcellulose (CMC)",121 % of control
same,T/C,"dose: 5.3 mg/kg/injection, schedule: Q01DX015 (ip), vehicle: carboxymethylcellulose (CMC)",89 % of control
same,T/C,"dose: 6.5 mg/kg/injection, schedule: Q01DX015 (ip), vehicle: carboxymethylcellulose (CMC)",253 % of control
same,T/C,"dose: 7.0 mg/kg/injection, schedule: Q01DX015 (ip), vehicle: carboxymethylcellulose (CMC)",108 % of control
same,T/C,"dose: 8.0 mg/kg/injection, schedule: Q01DX015 (ip), vehicle: carboxymethylcellulose (CMC)",122 % of control
same,T/C,"dose: 8.7 mg/kg/injection, schedule: Q01DX015 (ip), vehicle: carboxymethylcellulose (CMC)",157 % of control
same,T/C,"dose: 12.0 mg/kg/injection, schedule: Q01DX015 (ip), vehicle: carboxymethylcellulose (CMC)",90 % of control
same,T/C,"dose: 13.0 mg/kg/injection, schedule: Q02DX010 (ip), vehicle: carboxymethylcellulose (CMC)",191 % of control
same,T/C,"dose: 15.0 mg/kg/injection, schedule: Q01DX010 (ip), vehicle: carboxymethylcellulose (CMC)",170 % of control
same,T/C,"dose: 15.0 mg/kg/injection, schedule: Q01DX015 (ip), vehicle: carboxymethylcellulose (CMC)",168 % of control
same,T/C,"dose: 18.0 mg/kg/injection, schedule: Q01DX015 (ip), vehicle: carboxymethylcellulose (CMC)",108 % of control
same,T/C,"dose: 20.0 mg/kg/injection, schedule: Q01DX010 (ip), vehicle: carboxymethylcellulose (CMC)",181 % of control
same,T/C,"dose: 20.0 mg/kg/injection, schedule: Q01DX015 (ip), vehicle: carboxymethylcellulose (CMC)",166 % of control and 187 % of control
same,T/C,"dose: 22.5 mg/kg/injection, schedule: Q01DX015 (ip), vehicle: carboxymethylcellulose (CMC)",154 % of control
same,T/C,"dose: 26.0 mg/kg/injection, schedule: Q01DX015 (ip), vehicle: carboxymethylcellulose (CMC)",214 % of control
same,T/C,"dose: 27.0 mg/kg/injection, schedule: Q01DX015 (ip), vehicle: carboxymethylcellulose (CMC)",90 % of control
same,T/C,"dose: 30.0 mg/kg/injection, schedule: Q02DX010 (ip), vehicle: carboxymethylcellulose (CMC)",223 % of control
same,T/C,"dose: 45.0 mg/kg/injection, schedule: Q02DX010 (ip), vehicle: carboxymethylcellulose (CMC)",188 % of control
CCSc1nc(Cl)cc(Sc2nc(N)nc3nc[nH]c23)n1,T/C,"dose: 8.0 mg/kg/injection, schedule: Q01DX Z (ip), vehicle: other",107 % of control
same,T/C,"dose: 16.0 mg/kg/injection, schedule: Q01DX Z (ip), vehicle: other",90 % of control
Nc1ccc(OC(=O)Oc2ccc(N)cc2)cc1,T/C,"dose: 62.0 mg/kg/injection, schedule: Q01DX Z (ip), vehicle: saline",95 % of control
same,T/C,"dose: 125.0 mg/kg/injection, schedule: Q01DX Z (ip), vehicle: saline",152 % of control
same,T/C,"dose: 250.0 mg/kg/injection, schedule: Q01DX Z (ip), vehicle: saline",103 % of control
